This is an account of results in ChEMBL document CHEMBL4613259, “Biosynthesis of Amino Acid Derived α-Pyrones by an NRPS-NRPKS Hybrid Megasynthetase in Fungi” (J Nat Prod, 2020).

≈ marks a conversion by molar mass, not a printed value. Calls of active or inactive are those of the source. The rule behind the calls is not given here.

The subject of one test is Candida albicans. Description: Antifungal activity against Candida albicans SC5314 up to 100 ug/ml after 48 hrs by microdilution assay. The test is classed as functional, organism-based. On the technique in general: Dilution methods test growth across graded concentrations, often in twofold steps.
Another test has as its system Aspergillus nidulans. The test is described as follows: Growth inhibition of Aspergillus nidulans at 0 to 300 ug/ml incubated for 4 days. The test is classed as functional, organism-based.
For another test, the system named is T47D. Description: Growth inhibition of human T47D cells. The test is classed as functional, cell-based.

With `COc1cc([C@H](Cc2ccccc2Cl)NC(C)=O)oc(=O)c1`, in the test on Candida albicans, the outcome was inactive.

On to `N[C@@H](Cc1ccccc1)c1cc(O)cc(=O)o1`, for which, in the test on Aspergillus nidulans, the “growth inhibition (GI)” value is “Active”.

In the case of `COc1cc([C@H](Cc2ccc(Br)cc2)NC(C)=O)oc(=O)c1`, in the test on Candida albicans, the result was inactive.

In the case of `COc1cc([C@H](Cc2ccc(F)cc2)NC(C)=O)oc(=O)c1`, the result with Candida albicans was inactive.

Regarding `COc1cc([C@H](Cc2ccc(C)cc2)NC(C)=O)oc(=O)c1`, the outcome with Candida albicans was inactive.

As for `COc1cc([C@H](Cc2ccccc2)NC(C)=O)oc(=O)c1`, the result in the test on Candida albicans was inactive. In addition, half-maximal inhibition in the test with T47D (IC50) was put at 9.2 µg/mL (≈ 32 µM).

As for `COc1cc([C@H](Cc2ccc(Cl)cc2)NC(C)=O)oc(=O)c1`, the outcome in the test on Candida albicans was inactive.

With `COc1cc([C@H](Cc2cccc(Cl)c2)NC(C)=O)oc(=O)c1`, the outcome in the test on Candida albicans was inactive.
